From patent US8329908B2, “Dual action antibiotics” (Morphochem Aktiengesellschaft fur Kombinatorische Chemie, priority 2001, dated 2012)

Experiments:
S. aureus (MRSA) = test: MIC against S. aureus (MRSA); type: cell-based
Procedure: (§1) All examples were tested against several gram positive and gram negative bacteria. They all have a broader and more pronounced activity than the corresponding quinolone and oxazolidinone as well as a 1+1 combination of these two compounds.

S. aureus (MSSA) = test: MIC against S. aureus (MSSA); type: cell-based
Procedure: as §1

E. faecalis = test: MIC against E. faecalis; type: cell-based
Procedure: as §1

E. faecium = test: MIC against E. faecium; type: cell-based
Procedure: as §1

S. pneumoniae = test: MIC against S. pneumoniae; type: cell-based
Procedure: as §1

| Typical MIC range (S. aureus (MRSA)) [µg/mL] | Typical MIC range (S. aureus (MSSA)) [µg/mL] | Typical MIC range (E. faecalis) [µg/mL] | Typical MIC range (E. faecium) [µg/mL] | Typical MIC range (S. pneumoniae) [µg/mL] | melting point | Structure (SMILES) |
| --- | --- | --- | --- | --- | --- | --- |
| 1 to 2 | 1 to 2 | 0.5 to 2 | 1 to 2 | 0.125 to 1 |  | CC(=O)NC[C@H]1CN(c2ccc(N3CCOCC3)c(F)c2)C(=O)O1 [linezolid] |
| 0.5 to 32 | 0.125 to 1 | 0.5 to 32 | 0.25 to 32 | 1 to 4 |  | O=C(O)c1cn(C2CC2)c2cc(N3CCNCC3)c(F)cc2c1=O [ciprofloxacin] |
|  |  |  |  |  | 258 °C (dec.) | CC(=O)NC[C@H]1CN(c2ccc(N3CCN(c4c(F)cc5c(=O)c(C(=O)O)cn6c5c4OCC6C)CC3)c(F)c2)C(=O)O1 (stereo partly drawn) [Example 2, 9-(4-{4-[5-(acetylamino-methyl)-2-oxo-oxazolidin-3-yl]-2-fluoro-phenyl}-piperazin-1-yl)-8-fluoro-3-methyl-6-oxo-2,3-dihydro-6H-1-oxa-3a-aza-phenalene-5-carboxylic acid] |
|  |  |  |  |  | 315 to 320 °C (dec.) | CC(=O)NC[C@H]1CN(c2ccc(N3CCN(c4cc5c(cc4F)c(=O)c(C(=O)O)cn5C4CC4)CC3)c(F)c2)C(=O)O1 (stereo in doubt) [Example 1, 7-(4-{4-[5-(acetylamino-methyl)-2-oxo-oxazolidin-3-yl]-2-fluoro-phenyl}-piperazin-1-yl)-1-cyclopropyl-6-fluoro-4-oxo-1,4-dihydro-quinoline-3-carboxylic acid] |
